This note sets out measurements from patent US20090306373A1, “4,7-DIHYDROTHIENO[2,3-B]PYRIDINE COMPOUNDS AND PHARMACEUTICAL COMPOSITIONS” (priority 2005, published 2009).

This experiment deals with alpha-MyHC. Description: alpha-MyHC cytoblot in neonatal rat ventricular myocytes (NRVM). The experiment is classed as cell-based. Conditions: for Max Plateau: fitted maximum, percent fraction of low control (vehicle), in %; for EC50: concentration giving 50% of maximum response. As for the experimental part:
In vitro activity of each compound is measured using the alpha-MyHC cytoblot process. Briefly, neonatal rat ventricular myocytes (NRVM) at 120,000 cells/ml in HyQ DME/High modified culture media supplemented with 10% charcoal/dextran treated FBS, 0.1% Nutridoma-SP, 1:100 MEM non-essential amino acids, 1:50 MEM amino acids solution w/o L-Gln, 1 mM sodium pyruvate and 1:100 P/S/G, are plated on gelatin coated sterile 384-well plates (Costar 3712) at 6,000 cells per well. Cells are incubated overnight at 37° C. in 5% CO2 100% humidity. Following overnight growth the media is changed to HyQ DME/High modified culture media supplemented with 0.3% Nutridoma-SP, 1:100 MEM non-essential amino acids, 1:50 MEM amino acids solution w/o L-Gln, 1 mM sodium pyruvate and 1:100 P/S/G. Cells are then dosed with serial dilutions of each compound in DMSO. Each concentration in the dose range is dosed in quadruplicate. Dosing is done in such a way so that the final DMSO concentration was 0.44%. Compound dilutions are 3-fold with the final top concentration of 10 uM. […] Following dosing, the cells are incubated for 72 hours at 37° C. in 5% CO2 100% humidity and then processed with the cytoblot method. Briefly, cell media is aspirated and cell monolayers washed with PBS and fixed with 100% methanol for 30 minutes. Fixed cells are then blocked with PBS, 0.05% Tween-20, 1% BSA, for 1 hour. Following blocking, cells are incubated with primary alpha-MyHC-specific antibody (1:30 dilution of BA-G5 hybridoma conditioned media, ATCC HB276) for 1 hour. Following incubation with the primary antibody, cells are washed with PBS, 0.05% Tween-20, 1% BSA and incubated with secondary antibody (1:1000 dilution, goat-anti-mouse HRP, Southern Biotech, 1031-05) for 1 hour. Following incubation with the secondary antibody, wells are washed and incubated in SuperSignal, West Dura HRP-luminescence substrate for 30 seconds under shaking at room temperature. Luminescence is measured using a Packard Fusion plate reader. […] RLU values are converted into percent fraction of low control and dose responses are fitted to a sigmoidal 4-parameter equation (XLFit, IDBS) where the EC50 and Max Plateau values were extracted. […] Max Plateau is the […] maximum value determined by the dose response fit.

Setting [1] is: Rattus norvegicus, Ventricular myocyte, Table 1, 72 hours.

Usually EC50 stands for the concentration giving half of the maximal effect. Read a low EC50 as greater potency.

Turning to `COc1ccc(C2C(C(C)=O)=C(C)Nc3sc(C(=O)c4ccccc4)c(N)c32)cc1` (centres unmarked) [Compound 14], where the note is “Table 1, 72 hours”, the “Max Plateau” value was 182.73 ± 26.95.

For the compound `CCC(=O)C1=C(CC)Nc2sc(C(=O)c3ccc(C#N)cc3)c(N)c2C1c1ccccc1` (centres unmarked) [Compound 112], the “Max Plateau” value (Table 1, 72 hours) worked out at 266.67 ± 57.74.

As for `CC(=O)C1=C(C)Nc2sc(C(=O)c3cccc([N+](=O)[O-])c3)c(N)c2C1c1ccccc1Cl` (centres unmarked) [Compound 4, 1-[3-amino-4-(2-chloro-phenyl)-6-methyl-2-(3-nitro-benzoyl)-4,7-dihydro-thieno[2,3-b]pyridin-5-yl]-ethanone], the EC50 under setting [1] is 0.0857 µM.

As for `CCC(=O)C1=C(CC)Nc2sc(C(=O)c3ccc(Cl)c(Cl)c3)c(N)c2C1c1cc(F)cc(F)c1` (centres unmarked) [Compound 100], where the note is “Table 1, 72 hours”, the “Max Plateau” value was found to be 262.04 ± 31.65.

`CCCCNC(=O)C1=C(C)Nc2sc(C(=O)c3ccc(Cl)c(Cl)c3)c(N)c2C1c1ccccc1` (racemic) [Compound 196]: the “Max Plateau” value (Table 3, 72 hours) stood at 121.93 ± 25.12.

On to `CCC(=O)C1=C(CC)Nc2sc(C(=O)c3ccc(Cl)c(Cl)c3)c(N)c2C1c1ccc(O)cc1Cl` (centres unmarked) [Compound 83], for which, for the setting “Table 1, 72 hours”, the “Max Plateau” value was found to be 274.88 ± 44.56.

As to `CC(=O)C1=C(C)Nc2sc(C(=O)c3ccc(Cl)c(Cl)c3)c(N)c2C1c1ccc(C(C)(C)C)cc1` (centres unmarked) [Compound 32], the “Max Plateau” value (Table 1, 72 hours) is 100.00 ± 0.00.

`CCOC(=O)C1=C(C)Nc2sc(C(=O)c3cccc(Br)c3)c(N)c2C1(C)c1ccccc1` (centres unmarked) [Compound 197]: where the note is “Table 4, 72 hours”, the EC50 turned out to be 0.792 µM and the “Max Plateau” value is listed as 159.55 ± 10.94.

Take `COCCOC(=O)C1=C(C)Nc2sc(C(=O)c3ccc(Cl)c(Cl)c3)c(N)c2C1c1ccccc1` (centres unmarked) [Compound 119]: the “Max Plateau” value (Table 2, 72 hours) is listed as 234.93.

With `CCC(=O)C1=C(CC)Nc2sc(C(=O)c3ccc(Cl)c(Cl)c3)c(N)c2C1c1cccc2ccccc12` (centres unmarked) [Compound 85], the “Max Plateau” value (Table 1, 72 hours) is listed as 105.90 ± 6.18.

`CC(=O)C1=C(C)Nc2sc(C(=O)c3ccccc3)c(N)c2C1c1ccccc1` (centres unmarked) [Compound 3]: the “Max Plateau” value (Table 1, 72 hours) came out at 250.88 ± 32.62.

For `CCC(=O)C1=C(CC)Nc2sc(C(=O)c3ccc(Cl)cc3)c(N)c2C1c1ccccc1` (centres unmarked) [Compound 80], for the setting “Table 1, 72 hours”, the “Max Plateau” value amounted to 226.13 ± 5.25.

`CCC(=O)C1=C(CC)Nc2sc(C(=O)c3cccc(C(=O)OC)c3)c(N)c2C1c1ccccc1` (centres unmarked) [Compound 74]: the “Max Plateau” value (Table 1, 72 hours) is 262.81 ± 32.38.

With `CC(C)C(=O)C1=C(C(C)C)Nc2sc(C(=O)c3ccc(Cl)c(Cl)c3)c(N)c2C1c1ccccc1` (centres unmarked) [Compound 46], the “Max Plateau” value (Table 1, 72 hours) is 98.33 ± 4.08.

Take `CCC1=C(C(=O)OC)C(c2ccccc2)c2c(sc(C(=O)c3cccc(C#N)c3)c2N)N1` (centres unmarked) [Compound 143]: under “Table 2, 72 hours”, the “Max Plateau” value stood at 290.53.

With `CCCC(=O)C1=C(CCC)Nc2sc(C(=O)c3cc(Cl)ccc3Cl)c(N)c2C1c1ccccc1` (centres unmarked) [Compound 94], the “Max Plateau” value (Table 1, 72 hours) came to 153.83 ± 13.14.

For `CCCC(=O)C1=C(CCC)Nc2sc(C(=O)c3ccc(Cl)cc3Cl)c(N)c2C1c1ccccc1F` (centres unmarked) [Compound 91], for the setting “Table 1, 72 hours”, the “Max Plateau” value stood at 143.39 ± 20.69.

On to `CC(=O)C1=C(C)Nc2sc(C(=O)c3ccccc3)c(N)c2C1c1ccc(C(F)(F)F)cc1` (centres unmarked) [Compound 44], for which the “Max Plateau” value (Table 1, 72 hours) is listed as 186.67 ± 11.55.

Regarding `CCC(=O)C1=C(CC)Nc2sc(C(=O)c3cc(Cl)ccc3Cl)c(N)c2C1c1ccccc1` (centres unmarked) [Compound 64], the “Max Plateau” value (Table 1, 72 hours) worked out at 281.39 ± 54.54.

Consider `CC(=O)C1=C(C)Nc2sc(C(=O)c3ccc(Cl)c(Cl)c3)c(N)c2C1c1cccs1` (centres unmarked) [Compound 41], for which the “Max Plateau” value (Table 1, 72 hours) was determined as 178.47 ± 7.82.

For `CCC(=O)C1=C(CC)Nc2sc(C(=O)c3ccc(Cl)c(Cl)c3)c(N)c2C1c1ccnc(Cl)c1` (centres unmarked) [Compound 99], for the setting “Table 1, 72 hours”, the “Max Plateau” value stood at 264.37 ± 33.84.

Regarding `CCC(=O)C1=C(CC)Nc2sc(C(=O)c3ccc(Cl)c(Cl)c3)c(N)c2C1c1cccc([N+](=O)[O-])c1` (centres unmarked) [Compound 58], where the note is “Table 1, 72 hours”, the “Max Plateau” value came to 232.20 ± 56.57.

As for `CCC(=O)C1=C(CC)Nc2sc(C(=O)c3c(Cl)cccc3Cl)c(N)c2C1c1ccccc1F` (centres unmarked) [Compound 107], the “Max Plateau” value (Table 1, 72 hours) worked out at 273.85 ± 29.06.

Turning to `CCC(=O)C1=C(CC)Nc2sc(C(=O)c3cccc(C(=O)O)c3)c(N)c2C1c1ccccc1` (centres unmarked) [Compound 77], for the setting “Table 1, 72 hours”, the “Max Plateau” value turned out to be 220.00 ± 10.00.

Regarding `CCC1=C(C(=O)OC(C)CC)C(c2ccccc2F)c2c(sc(C(=O)c3ccc(Cl)c(Cl)c3)c2N)N1` (single isomer, unassigned) [Compound 162], where the note is “Table 2, 72 hours”, the “Max Plateau” value amounted to 183.22.

On to `CCC1=C(C(=O)OC)C(c2cc(F)cc(F)c2)c2c(sc(C(=O)c3ccccc3)c2N)N1` (centres unmarked) [Compound 172], for which the “Max Plateau” value (Table 2, 72 hours) stood at 304.08.

In the case of `CCOC(=O)C1=C(CC)Nc2sc(C(=O)c3ccc(Cl)c(Cl)c3)c(N)c2C1c1ccccc1F` (centres unmarked) [Compound 142], the “Max Plateau” value (Table 2, 72 hours) was determined as 194.32.

As for `CC(=O)C1=C(C)Nc2sc(C(=O)c3ccccc3)c(N)c2C1c1cccnc1` (centres unmarked) [Compound 20], the “Max Plateau” value (Table 1, 72 hours) was determined as 127.35 ± 23.71.

Consider `CC(=O)C1=C(C)Nc2sc(C(=O)c3ccc(C)c(C)c3)c(N)c2C1c1ccccc1` (centres unmarked) [Compound 8], for which the “Max Plateau” value (Table 1, 72 hours) is listed as 172.29 ± 9.66.

`CC(=O)C1=C(C)Nc2sc(C(=O)c3ccccc3)c(N)c2C1c1ccccc1F` (centres unmarked) [Compound 24]: the “Max Plateau” value (Table 1, 72 hours) turned out to be 260.35 ± 43.53.

On to `CC(=O)C1=C(C)Nc2sc(C(=O)c3ccc(Cl)c(Cl)c3)c(N)c2C1c1ccc(C(F)(F)F)cc1` (centres unmarked) [Compound 48], for which the “Max Plateau” value (Table 1, 72 hours) was 190.81 ± 37.09.

For the compound `CC(=O)C1=C(C)Nc2sc(C(=O)c3ccc(Cl)c(Cl)c3)c(N)c2C1c1ccc(Br)cc1` (centres unmarked) [Compound 22], for the setting “Table 1, 72 hours”, the “Max Plateau” value is reported as 174.35 ± 23.39.

As to `CC(=O)C1=C(C)Nc2sc(C(=O)c3ccc(Cl)c(Cl)c3)c(N)c2C1c1ccc(Cl)c(Cl)c1` (centres unmarked) [Compound 47], where the note is “Table 1, 72 hours”, the “Max Plateau” value is reported as 173.47 ± 25.64.

Regarding `CCC1=C(C(=O)OC)C(c2ccc(F)cc2F)c2c(sc(C(=O)c3ccc(Cl)c(Cl)c3)c2N)N1` (centres unmarked) [Compound 153], the “Max Plateau” value (Table 2, 72 hours) was 234.66.

On to `CCC(=O)C1=C(CC)Nc2sc(C(=O)c3ccc(Cl)c(C)c3)c(N)c2C1c1ccccc1` (centres unmarked) [Compound 89], for which the “Max Plateau” value (Table 1, 72 hours) was 230.09 ± 19.81.

In the case of `CCC(=O)C1=C(CC)Nc2sc(C(=O)c3ccc(Cl)c(Cl)c3)c(N)c2C1c1c(F)cccc1Cl` (centres unmarked) [Compound 40], for the setting “Table 1, 72 hours”, the “Max Plateau” value came to 244.87 ± 7.92.

As to `CCC(=O)C1=C(CC)Nc2sc(C(=O)c3ccc(Cl)c(Cl)c3)c(N)c2C1c1ccncc1` (centres unmarked) [Compound 104, 1-[3-amino-2-(3,4 dichloro-benzoyl)-6-ethyl-4 pyridin-4-yl-4,7 dihydro-thieno[2,3-b]pyridin-5-yl]-propan-1-one], it took 0.0248 µM to reach a half-maximal effect under setting [1] (EC50).

For `COC(=O)C1=C(C(C)C)Nc2sc(C(=O)c3cccc(C#N)c3)c(N)c2C1c1ccccc1F` (racemic) [Compound 177], the “Max Plateau” value (Table 2, 72 hours) stood at 162.75.

`CC(=O)C1=C(C)Nc2sc(C(=O)c3cccnc3)c(N)c2C1c1ccccc1` (centres unmarked) [Compound 5]: the “Max Plateau” value (Table 1, 72 hours) is reported as 286.43 ± 42.04.

On to `CCC1=C(C(=O)OCC(C)C)C(c2ccccc2)c2c(sc(C(=O)c3ccc(Cl)c(Cl)c3)c2N)N1` (centres unmarked) [Compound 161], for which, for the setting “Table 2, 72 hours”, the “Max Plateau” value turned out to be 232.35.

Take `CCOC(=O)C1=C(C)Nc2sc(C(=O)c3ccc(Cl)c(Cl)c3)c(N)c2C1c1ccccc1` (centres unmarked) [Compound 113]: the “Max Plateau” value (Table 2, 72 hours) turned out to be 256.38.

For the compound `CCC(=O)C1=C(CC)Nc2sc(C(=O)c3ccc(Cl)c(Cl)c3)c(N)c2C1c1ccccc1` (centres unmarked) [Compound 36], the “Max Plateau” value (Table 1, 72 hours) worked out at 256.56 ± 24.93.

For the compound `Nc1c(C(=O)c2ccccc2)sc2c1C(c1ccccc1)C(C(=O)c1ccccc1)=C(c1ccccc1)N2` (centres unmarked) [Compound 30], for the setting “Table 1, 72 hours”, the “Max Plateau” value worked out at 100.00 ± 0.00.

In the case of `CCC(=O)C1=C(CC)Nc2sc(C(=O)c3ccc(Cl)c(Cl)c3)c(N)c2C1c1c(F)cccc1F` (centres unmarked) [Compound 63], the “Max Plateau” value (Table 1, 72 hours) is on record as 230.07 ± 45.59.

On to `COC(=O)C1=C(C2CC2)Nc2sc(C(=O)c3cccc(Cl)c3)c(N)c2C1c1ccnc(F)c1` (racemic) [Compound 176], for which the “Max Plateau” value (Table 2, 72 hours) came out at 218.25.

Turning to `CCC(=O)C1=C(CC)Nc2sc(C(=O)c3ccc(F)c(F)c3)c(N)c2C1c1ccnc(F)c1` (centres unmarked) [Compound 102], the “Max Plateau” value (Table 1, 72 hours) is recorded as 269.88 ± 36.90.
